Results on six compounds are retold here after US6943158B2, “Diazinopyrimidines” (Roche Palo Alto LLC, priority 2002, dated 2005).

Data set [1] concerns the target T1, p38 MAP kinase (Homo sapiens, UniProt Q16539).
T1 construct: made in house; host or cells: E. coli (co-expressed with SEK-1 and MEKK to phosphorylate it)
Nature of the data set: in vitro p38 MAP kinase inhibition assay (transfer of γ-33P from ATP to Myelin Basic Protein). The class given is biochemical. Particulars: phosphorylated recombinant p38 MAP kinase, MBP substrate, γ-33P-ATP; read-out: p-38 inhibitory activity, IC50. The method, then:
This example illustrates an in vitro assay procedure for determining p38 MAP kinase inhibition by a compound of Formula I.
The p-38 MAP kinase inhibitory activity of compounds of this invention in vitro is determined by measuring the transfer of the γ-phosphate from γ-^33P-ATP by p-38 kinase to Myelin Basic Protein (MBP), using the a minor modification of the method described in Ahn, N. G.; et al. J. Biol. Chem. Vol. 266(7), 4220-4227, (1991).
The phosphorylated form of the recombinant p38 MAP kinase was expressed with SEK-1 and MEKK in E. Coli and then purified by affinity chromatography using a Nickel column.
The phosphorylated p38 MAP kinase is diluted in kinase buffer (20 mM 3-(N-morpholino)propanesulfonic acid, pH 7.2, 25 mM β-glycerol phosphate, 5 mM ethylene glycol-bis(beta-aminoethyl ether)-N,N,N′,N′-tetraacetic acid, 1 mM sodium vanadate, 1 mM dithiothreitol, 40 mM magnesium chloride). Test compound dissolved in DMSO or only DMSO (control) is added and the samples are incubated for 10 min at 30° C. The kinase reaction is initiated by the addition of a substrate cocktail containing MBP and γ-^33P-ATP. […] The phosphorylated MBP is then separated from the residual γ-^33P-ATP using a phosphocellulose membrane (Millipore, Bedford, Mass.) and quantitated using a scintillation counter (Packard, Meriden, Conn.). […]

The target of data set [2] is T2, FGFR.
T2 construct: fused on or other part: GST tag
Nature of the data set: in vitro FGFR kinase inhibition HTRF assay. It counts as biochemical. The settings on record: recombinant GST-tagged FGFR, 10 μM ATP, 37° C. 30 minutes. The method, then:
To determine inhibition of FGFR activity, kinase assays were conducted using an HTRF (Homogeneous Time Resolved Fluorescence) assay. This assay is described in A. J. Kolb et. al., Drug Discovery Today, 1998, 3(7), p 333.
Prior to kinase reaction, recombinant GST-tagged FGFR enzyme was activated at room temperature for 1 hour in the following activation buffer: 100 mM HEPES, pH 7.4, 50 mM NaCl, 20 mM MgCl2, and 4 mM ATP.
Kinase activity assays were performed in 96-well polypropylene plates (Falcon) with a total volume of 90 μL in each well. Each well contained 1 μM substrate (Biotin-EEEEYFELV), 1.5 μM activated FGFR, and a test compound with one of 8 assay concentrations ranging from 100 μM to […] (1:5 serial dilution). The kinase activity assay was done in the presence of 100 mM HEPES, pH 7.4, 1 mM DTT, 0.1 mM Na2VO4, 0.4 mM MgCl2, 0.4 mM MnCl2, 50 mM NaCl (from KDR stock solution), 1% DMSO (from compound), 10 μM ATP (Km=8.5 μM for FGFR) and 0.02% BSA. The reaction was incubated at 37° C. for 30 minutes. To stop the FGFR reaction, 72 μL of reaction mixture was transferred into a STOP plate containing 18 μL of revelation buffer (20 mM EDTA, 50 mM HEPES, pH 7.4, 0.02% BSA, 10 nM Eu-labelled anti-p Y antibody (final conc. 2 nM), and 100 nM streptavidin (final conc. 20 nM)). After mixing, 35 μL of solution was transferred into duplicate wells of a 384-well black plate (Costar), and read at 615/665 nm on a Wallac Victor 5 reader.
Compound IC50 values were determined from duplicate sets of data, and calculated by using Excel and fitting data to equation Y=[(a−b)/{1+(X/c)^d]+b, where a and b are enzyme activity in the presence of no test inhibitor compound and an infinite amount of inhibitor test compound, respectively, c is the IC50 and d is the hill constant of the compound response. The IC50 value is the concentration of test compound that reduces by 50% the enzyme activity under the test conditions described. Compounds of the invention were active in the assay. Selected IC50 values are shown below.

T1 sequence (Q16539 whole entry): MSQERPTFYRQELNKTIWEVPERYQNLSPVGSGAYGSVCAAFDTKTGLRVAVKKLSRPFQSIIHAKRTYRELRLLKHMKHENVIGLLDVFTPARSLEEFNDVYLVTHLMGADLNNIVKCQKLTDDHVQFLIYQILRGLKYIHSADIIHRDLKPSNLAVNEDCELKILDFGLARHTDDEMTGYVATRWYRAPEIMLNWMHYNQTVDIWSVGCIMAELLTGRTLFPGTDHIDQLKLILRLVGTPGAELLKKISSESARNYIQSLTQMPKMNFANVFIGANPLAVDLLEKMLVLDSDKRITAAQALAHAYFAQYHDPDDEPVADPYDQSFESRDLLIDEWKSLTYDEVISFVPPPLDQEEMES

Regarding `CN1N=C(c2ccccc2Cl)Oc2cnc(NC3CCOCC3)nc21` [compound 1, 2-methyl-4-(2-chlorophenyl)-6-(tetrahydropyranyl-4-amino)-4H-1,3,4-pyrimido[4,5-e]oxadiazine], the melting point was 171 to 172.1 °C. Moreover, the IC50 in data set [1] came to 189 nM.

Take `CN1N=C(c2ccccc2F)Oc2cnc(NC3CCOCC3)nc21` [compound 2]: the IC50 in data set [1] worked out at 2200 nM. `CN1N=C(c2c(Cl)cccc2Cl)Oc2cnc(Nc3ccccc3)nc21` [compound 5, [3-(2,6-dichlorophenyl)-1-methyl-1H-pyrimido[4,5-e][1,3,4]oxadiazin-7-yl]-phenyl-amine]: the IC50 in data set [2] was 180 nM. Still for that read-out and setting: the same measure for `CN1N=C(c2c(Cl)cccc2Cl)Oc2cnc(Nc3ccc(F)cc3)nc21` [compound 6, [3-(2,6-Dichloro-phenyl)-1-methyl-1H-pyrimido[4,5-e][1,3,4]oxadiazin-7-yl]-(4-fluoro-phenyl)-amine]: 240 nM; for `CN1N=C(c2c(Cl)cccc2Cl)Oc2cnc(Nc3cccc(Cl)c3)nc21` [compound 7, [3-(2,6-Dichloro-phenyl)-1-methyl-1H-pyrimido[4,5-e][1,3,4]oxadiazin-7-yl]-(3-chloro-phenyl)-amine]: 320 nM.

Compound `CN1N=C(c2c(Cl)cccc2Cl)Oc2cnc(Nc3ccc(N4CCOCC4)cc3)nc21` [compound 29, [3-(2,6-dichlorophenyl)-1-methyl-1H-pyrimido[4,5-e][1,3,4]oxadiazin-7-yl]-(4-morpholin-4-yl-phenyl)amine] returned a melting point of 192.2 to 200.3 °C.
